# Reference: publication PMC7413254 (Nature Communications, 2020)
# Legend:
# non-expressing oocytes = experiment: cells; format: cell-based, Xenopus laevis; settings: total [3H]CQ transport; for Uptake of [3H]CQ (% non-expressing oocyte control), cis-inhibition: non-expressing oocytes, normalised to the oocyte type control; for Uptake of [3H]CQ (% PfCRTDd2 control), cis-inhibition, non-expressing oocytes: mean ± SEM, SEM
# Method in brief: (§1)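 Washed oocytes (ten per treatment) were exposed to label in pH 5.5 ND96 for 1.5 h at 27.5 °C. Buffer was then removed, cells rinsed in ice-cold ND96, lysed in SDS and counted.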
# PfCRT = experiment: Potential co-substrates tested for influx of VF-6 via PfCRT into the oocyte; format: cell-based, Plasmodium falciparum; parameters: key: X: Compounds that have been tested as potential co-substrates but are not required for influx of VF-6 via PfCRT into the oocyte
# PfCRT^3D7 [1] = target: T1, PfCRT^3D7 (Plasmodium falciparum, UniProt Q8IBZ9); experiment: cell-based; format: cell-based; settings: total [3H]CQ transport; for Uptake of [3H]CQ (% PfCRT3D7 control), cis-inhibition: PfCRT3D7 oocytes, normalised to the oocyte type control; for Uptake of [3H]CQ (% PfCRTDd2 control), cis-inhibition, PfCRT3D7: mean ± SEM, SEM
# Method in brief: as §1
# PfCRT^Dd2 = PfCRT^Dd2 (Plasmodium falciparum, UniProt Q9N623, A220S/I356T/K76T/M74I/N326S/N75E/Q271E/R371I); experiment: cell-based; format: cell-based; settings: for Uptake of [3H]CQ (% PfCRTDd2 control), trans-stimulation / PfCRT-mediated [3H]CQ transport, trans-stimulation (% PfCRTDd2 control): PfCRTDd2 oocytes; for Uptake of [3H]CQ (% PfCRTDd2 control), trans-stimulation / Uptake of [3H]CQ (% PfCRTDd2 control), trans-stimulation, PfCRTDd2: total [3H]CQ transport; for Uptake of [3H]CQ (% PfCRTDd2 control), trans-stimulation: normalised to the oocyte type control; for PfCRT-mediated [3H]CQ transport, trans-stimulation (% PfCRTDd2 control): normalised to oocyte type control; for Uptake of [3H]CQ (% PfCRTDd2 control), trans-stimulation, PfCRTDd2 / [3H]CQ transport (% PfCRTDd2 control), trans-stimulation, PfCRTDd2: mean ± SEM, SEM; for [3H]CQ transport (% PfCRTDd2 control), trans-stimulation, PfCRTDd2: PfCRT-mediated component (background subtracted)
# Method in brief: (§2)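 Transport measured in Xenopus oocytes expressing the transporters, 1.5 h at 27.5 °C in ND96 pH 5.5 unless noted. For trans-stimulation, VF-6 injected in 25 nL ND96 at pH 5.0–7.0 or Na^+-free (choline) buffer; intracellular levels based on ~400 nL oocyte volume. Ten oocytes per treatment, ≥4 experiments.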
# PfNT1 = target: T2, PfNT1 (Plasmodium falciparum, UniProt Q8IDM6); experiment: cell-based; format: cell-based; settings: total [3H]CQ transport; for Uptake of [3H]CQ (% PfNT1 control), trans-stimulation: PfNT1 oocytes, normalised to the oocyte type control; for Uptake of [3H]CQ (% PfCRTDd2 control), trans-stimulation, PfNT1: mean ± SEM, SEM
# T2 construct: expressed in transfected cells; host or cells: Xenopus laevis oocytes (stage V-VI), cRNA-injected
# Method in brief: as §2
# PfCRT^3D7 [2] = target: T1, PfCRT^3D7; experiment: cell-based; format: cell-based; settings: for Uptake of [3H]CQ (% PfCRT3D7 control), trans-stimulation / PfCRT-mediated [3H]CQ transport, trans-stimulation (% PfCRT3D7 control): PfCRT3D7 oocytes; for Uptake of [3H]CQ (% PfCRT3D7 control), trans-stimulation / Uptake of [3H]CQ (% PfCRTDd2 control), trans-stimulation, PfCRT3D7: total [3H]CQ transport; for Uptake of [3H]CQ (% PfCRT3D7 control), trans-stimulation: normalised to the oocyte type control; for PfCRT-mediated [3H]CQ transport, trans-stimulation (% PfCRT3D7 control): normalised to oocyte type control; for Uptake of [3H]CQ (% PfCRTDd2 control), trans-stimulation, PfCRT3D7: mean ± SEM, SEM
# Method in brief: as §2
# [3] = [test solute]i = 45 mM (30 mM for some solutes due to solubility)
# [4] = [test solute]i = 5 mM (intracellular)
# [5] = [test solute]i = 45 mM (intracellular; 30 mM for some solutes due to solubility)
# Sequence of PfCRT^Dd2 (Q9N623 whole entry A220S/I356T/K76T/M74I/N326S/N75E/Q271E/R371I): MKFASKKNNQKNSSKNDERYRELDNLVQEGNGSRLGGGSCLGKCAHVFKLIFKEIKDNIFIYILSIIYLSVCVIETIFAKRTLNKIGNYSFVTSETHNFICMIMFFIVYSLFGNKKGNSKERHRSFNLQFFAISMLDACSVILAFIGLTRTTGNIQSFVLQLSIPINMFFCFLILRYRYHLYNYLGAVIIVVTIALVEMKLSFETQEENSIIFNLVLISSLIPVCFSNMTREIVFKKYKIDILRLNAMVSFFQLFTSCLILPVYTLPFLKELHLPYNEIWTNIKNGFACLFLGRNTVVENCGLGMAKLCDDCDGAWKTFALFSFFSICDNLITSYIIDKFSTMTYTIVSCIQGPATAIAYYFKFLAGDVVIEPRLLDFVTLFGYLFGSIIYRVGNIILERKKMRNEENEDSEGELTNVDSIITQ
# T1 sequence (Q8IBZ9 59-398): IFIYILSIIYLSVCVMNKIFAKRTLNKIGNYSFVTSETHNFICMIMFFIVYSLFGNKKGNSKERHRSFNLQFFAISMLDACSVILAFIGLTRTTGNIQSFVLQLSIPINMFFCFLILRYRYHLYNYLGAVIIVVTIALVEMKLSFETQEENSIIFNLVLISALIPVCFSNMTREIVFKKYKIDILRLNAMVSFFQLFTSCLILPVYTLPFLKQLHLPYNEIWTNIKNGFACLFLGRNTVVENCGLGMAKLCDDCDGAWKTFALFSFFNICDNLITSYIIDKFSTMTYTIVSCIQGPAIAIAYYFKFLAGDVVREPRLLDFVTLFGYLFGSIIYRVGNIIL
# T2 sequence (Q8IDM6 whole entry): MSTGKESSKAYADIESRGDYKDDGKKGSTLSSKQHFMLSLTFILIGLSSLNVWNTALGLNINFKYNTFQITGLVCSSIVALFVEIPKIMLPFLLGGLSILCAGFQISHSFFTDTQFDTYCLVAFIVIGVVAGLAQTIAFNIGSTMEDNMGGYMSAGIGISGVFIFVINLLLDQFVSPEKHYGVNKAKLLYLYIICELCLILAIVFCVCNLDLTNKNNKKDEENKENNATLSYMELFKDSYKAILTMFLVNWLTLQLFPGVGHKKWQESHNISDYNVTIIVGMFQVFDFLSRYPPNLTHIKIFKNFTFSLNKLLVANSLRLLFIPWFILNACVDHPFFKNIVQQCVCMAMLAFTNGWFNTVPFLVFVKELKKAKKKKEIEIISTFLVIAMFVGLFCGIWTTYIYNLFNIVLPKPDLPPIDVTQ
compound,measurement,setting,value
NC(=O)C[C@H](N)C(=O)O [L-asparagine],"Uptake of [3H]CQ (% non-expressing oocyte control), cis-inhibition",non-expressing oocytes; [test solute] = 0.5 mM,100 ± 5.6 % non-expressing oocyte control
same,"Uptake of [3H]CQ (% non-expressing oocyte control), cis-inhibition",non-expressing oocytes; [test solute] = 1 mM,98 ± 5.3 % non-expressing oocyte control
same,"Uptake of [3H]CQ (% non-expressing oocyte control), cis-inhibition",non-expressing oocytes; [test solute] = 2 mM,100 ± 4.6 % non-expressing oocyte control
same,"Uptake of [3H]CQ (% PfCRTDd2 control), cis-inhibition, non-expressing oocytes",non-expressing oocytes; [test solute] = 0.5 mM,3.9 ± 0.02 % PfCRTDd2 control
same,"Uptake of [3H]CQ (% PfCRTDd2 control), cis-inhibition, non-expressing oocytes",non-expressing oocytes; [test solute] = 1 mM,2.8 ± 0.04 % PfCRTDd2 control
same,"Uptake of [3H]CQ (% PfCRTDd2 control), cis-inhibition, non-expressing oocytes",non-expressing oocytes; [test solute] = 2 mM,2.5 ± 0.05 % PfCRTDd2 control
same,Tested as potential co-substrate but not required for influx of VF-6 via PfCRT into the oocyte,PfCRT,X
same,"Uptake of [3H]CQ (% PfCRT3D7 control), cis-inhibition",PfCRT^3D7 [1]; [test solute] = 0.5 mM,98 ± 2.4 % PfCRT3D7 control
same,"Uptake of [3H]CQ (% PfCRT3D7 control), cis-inhibition",PfCRT^3D7 [1]; [test solute] = 1 mM,98 ± 3.5 % PfCRT3D7 control
same,"Uptake of [3H]CQ (% PfCRT3D7 control), cis-inhibition",PfCRT^3D7 [1]; [test solute] = 2 mM,101 ± 4.7 % PfCRT3D7 control
same,"Uptake of [3H]CQ (% PfCRTDd2 control), cis-inhibition, PfCRT3D7",PfCRT^3D7 [1]; [test solute] = 0.5 mM,2.6 ± 0.04 % PfCRTDd2 control
same,"Uptake of [3H]CQ (% PfCRTDd2 control), cis-inhibition, PfCRT3D7",PfCRT^3D7 [1]; [test solute] = 1 mM,2.2 ± 0.03 % PfCRTDd2 control
same,"Uptake of [3H]CQ (% PfCRTDd2 control), cis-inhibition, PfCRT3D7",PfCRT^3D7 [1]; [test solute] = 2 mM,3.4 ± 0.07 % PfCRTDd2 control
same,"Uptake of [3H]CQ (% PfCRTDd2 control), trans-stimulation",PfCRT^Dd2; [test solute]i = 5 mM,101 ± 3.1 % PfCRTDd2 control
same,"Uptake of [3H]CQ (% PfCRTDd2 control), trans-stimulation",PfCRT^Dd2; [3],98 ± 2.4 % PfCRTDd2 control
same,"PfCRT-mediated [3H]CQ transport, trans-stimulation (% PfCRTDd2 control)",PfCRT^Dd2; [4],99 ± 2.4 % PfCRTDd2 control
same,"PfCRT-mediated [3H]CQ transport, trans-stimulation (% PfCRTDd2 control)",PfCRT^Dd2; [5],96 ± 3.2 % PfCRTDd2 control
same,"Uptake of [3H]CQ (% PfCRTDd2 control), trans-stimulation, PfCRTDd2",PfCRT^Dd2; [4],101 ± 3.1 % PfCRTDd2 control
same,"Uptake of [3H]CQ (% PfCRTDd2 control), trans-stimulation, PfCRTDd2",PfCRT^Dd2; [5],98 ± 2.4 % PfCRTDd2 control
same,"[3H]CQ transport (% PfCRTDd2 control), trans-stimulation, PfCRTDd2",PfCRT^Dd2; [test solute]i = 5 mM (injected),99 ± 2.4 % PfCRTDd2 control
same,"[3H]CQ transport (% PfCRTDd2 control), trans-stimulation, PfCRTDd2",PfCRT^Dd2; [3],96 ± 3.2 % PfCRTDd2 control
same,"Uptake of [3H]CQ (% PfNT1 control), trans-stimulation",PfNT1; [test solute]i = 5 mM,100 ± 2.5 % PfNT1 control
same,"Uptake of [3H]CQ (% PfNT1 control), trans-stimulation",PfNT1; [3],99 ± 3.6 % PfNT1 control
same,"Uptake of [3H]CQ (% PfCRTDd2 control), trans-stimulation, PfNT1",PfNT1; [4],2.8 ± 0.04 % PfCRTDd2 control
same,"Uptake of [3H]CQ (% PfCRTDd2 control), trans-stimulation, PfNT1",PfNT1; [5],3.1 ± 0.06 % PfCRTDd2 control
same,"Uptake of [3H]CQ (% PfCRT3D7 control), trans-stimulation",PfCRT^3D7 [2]; [test solute]i = 5 mM,100 ± 4.2 % PfCRT3D7 control
same,"Uptake of [3H]CQ (% PfCRT3D7 control), trans-stimulation",PfCRT^3D7 [2]; [3],100 ± 3.7 % PfCRT3D7 control
same,"PfCRT-mediated [3H]CQ transport, trans-stimulation (% PfCRT3D7 control)",PfCRT^3D7 [2]; [4],98 ± 3.6 % PfCRT3D7 control
same,"PfCRT-mediated [3H]CQ transport, trans-stimulation (% PfCRT3D7 control)",PfCRT^3D7 [2]; [5],98 ± 2.8 % PfCRT3D7 control
same,"Uptake of [3H]CQ (% PfCRTDd2 control), trans-stimulation, PfCRT3D7",PfCRT^3D7 [2]; [4],3.3 ± 0.01 % PfCRTDd2 control
same,"Uptake of [3H]CQ (% PfCRTDd2 control), trans-stimulation, PfCRT3D7",PfCRT^3D7 [2]; [5],3.3 ± 0.04 % PfCRTDd2 control
